Activity calls are given as the source filed them. The rule behind the calls is not given here.

The target of the experiment is Serine/threonine-protein phosphatase 5 (Homo sapiens) (UniProt P53041). The experiment is described as follows: inhibition of PP5 cleaving OMFP – biochemical, fluorescence, single concentration, late-stage follow-up (AID 463222). Conditions: PP5 OMFP dephosphorylation, at 6.7 µM, stronger effect = higher value.
Serine/threonine-protein phosphatase 5 (Homo sapiens), sequence (P53041 whole entry, looked up): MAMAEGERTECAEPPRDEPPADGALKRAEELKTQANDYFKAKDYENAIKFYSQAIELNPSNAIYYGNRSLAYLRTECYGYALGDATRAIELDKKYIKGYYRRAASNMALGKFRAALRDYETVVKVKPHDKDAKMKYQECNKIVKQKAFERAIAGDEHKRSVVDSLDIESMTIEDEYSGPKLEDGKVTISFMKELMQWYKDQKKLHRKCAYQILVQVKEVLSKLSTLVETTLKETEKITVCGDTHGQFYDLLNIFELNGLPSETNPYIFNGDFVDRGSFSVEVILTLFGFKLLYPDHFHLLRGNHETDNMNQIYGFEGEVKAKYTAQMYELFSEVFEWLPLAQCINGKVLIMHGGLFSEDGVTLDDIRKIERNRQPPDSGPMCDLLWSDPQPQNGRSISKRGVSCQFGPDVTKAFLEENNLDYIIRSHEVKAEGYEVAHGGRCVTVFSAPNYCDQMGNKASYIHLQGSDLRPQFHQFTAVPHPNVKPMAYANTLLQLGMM
Broadly, the inhibition is the drop in the measured response relative to a control, in per cent. Take `COc1cc(Br)c(C(=O)c2nccc3cc(OC)c(OC)cc23)cc1OC`: the inhibition is 1.12% (inactive).

Regarding `COc1cnc(-c2ccccn2)nc1Sc1ccc(C)cc1`, the inhibition was 2.23% (inactive).

For the molecule `N#Cc1c(-c2ccc(Cl)cc2)cc(-c2cccs2)nc1SCC(=O)O`, the inhibition is -2.49% (inactive).

With `O=C(O)C1C2CCC(O2)C1C(=O)NC1CCCCC1` (stereo not given), the inhibition is 42.5%.

Regarding `c1ccc(Nc2nc(-c3ccccn3)cs2)cc1`, the inhibition is 2.82% (inactive).

Take `CCOC(=O)c1sc2nc3c(SCC(=O)O)cc(C(=O)c4cc(F)ccc4O)cn3c(=O)c2c1C`: the inhibition was -0.13% (inactive).

For `CC(C)(CS(=O)(=O)[O-])NC(=O)CC[N+](C)(C)CCO`, the inhibition was 0.86% (inactive).

Take `O=C(O)c1n[nH]nc1-c1ccccc1`: the inhibition is 53.4%.

For `CCOC(=O)C1=C(C)OC2(O)c3ccccc3C(=O)C12O` (stereo not given), the inhibition was 11.2% (inactive).

With `COc1cnc(-c2ccccn2)nc1Oc1cccc(Cl)c1`, the inhibition was 0.53% (inactive).

In the case of `Cc1[nH]n(-c2ccccc2)c(=O)c1C(c1ccc([N+](=O)[O-])cc1)c1c(C)[nH]n(-c2ccccc2)c1=O`, the inhibition was -3.88% (inactive).

Turning to `COc1cnc(-c2ccccn2)nc1Sc1ccc(F)cc1`, the inhibition was 5.48% (inactive).

As to `COc1cnc(-c2ccccn2)nc1Sc1ccccc1Cl`, the inhibition is 3.05% (inactive).

Turning to `Cc1ccc(C(=O)NNc2cc(N3CCCC3)nc(N3CCCC3)n2)cc1`, the inhibition is 8.52% (inactive).

For the molecule `CCCCn1c(NC(=O)c2ccco2)c(C(=O)OCC)c2nc3ccccc3nc21`, the inhibition was 2.48% (inactive).

As for `Nc1cc2nsnc2cc1Br`, the inhibition was 0.76% (inactive).

For the molecule `COc1cnc(-c2ccccn2)nc1Sc1ccc(Cl)cc1`, the inhibition was 4.61% (inactive).

In the case of `CCOC(=O)c1cnc(-n2nc(C)cc2C)nc1NCCc1ccccc1`, the inhibition was 6.83% (inactive).

Turning to `COc1ccc(CN2C(=O)Cc3c2nc(N)c2c(N)nc(N4CCCCC4)c(C#N)c32)cc1`, the inhibition is 1.97% (inactive).

Regarding `Nc1nc(-c2ccccn2)nc(N)c1Cc1ccc(Cl)cc1Cl`, the inhibition was 2.71% (inactive).

Take `CCOC(=O)c1nn(-c2ccc(C)cc2)c(=O)c2c(N)scc12`: the inhibition was -0.12% (inactive).

With `CCn1c2ccccc2c2cc(NC(=O)COC(=O)c3ccc(NC(=O)CC#N)cc3)ccc21`, the inhibition was -3.03% (inactive).

`CCOC(=O)c1cnc(-n2cc(C)cn2)nc1NCc1ccc2c(c1)OCO2`: the inhibition is 2.2% (inactive).

Take `COc1ccc(OCCCC(=O)Nc2nc(-c3ccccn3)cs2)cc1`: the inhibition is 5.93% (inactive).

Take `COc1cnc(-c2ccccn2)nc1Sc1cccc(Cl)c1`: the inhibition is 4.14% (inactive).

With `Clc1ccc(-n2nnnc2-c2cnc(-c3ccccn3)nc2-c2cccs2)cc1`, the inhibition is -2.47% (inactive).

Take `COc1ccccc1Sc1nc(-c2ccccn2)ncc1OC`: the inhibition is -3.47% (inactive).

Consider `O=C(NC1(O)C(=O)c2ccccc2C1=O)c1c(Cl)cccc1Cl`, for which the inhibition was 8.39% (inactive).

With `Cc1cc(C)c(S(=O)(=O)/N=C2\C=C(Sc3ncn[nH]3)C(=O)c3ccccc32)cc1C`, the inhibition is 4.08% (inactive).

Turning to `CCOC(=O)c1cnc(-n2nc(C)cc2C)nc1NCc1ccccc1`, the inhibition was 3.84% (inactive).

As to `COc1ccc(Sc2nc(-c3ccccn3)ncc2OC)cc1`, the inhibition is 3.64% (inactive).

For the molecule `Oc1ccc(/C=N/Nc2cc(N3CCOCC3)nc(N3CCOCC3)n2)c(O)c1`, the inhibition is 11.4% (inactive).

For the molecule `O=C(O)c1cc(-c2ccc(Cl)cc2)n(-c2cccc(Cl)c2)n1`, the inhibition was -5.16% (inactive).

For `CCOC(=O)c1cnc(-n2nc(C)cc2C)nc1NC(C)c1ccccc1` (stereo not given), the inhibition was 5.83% (inactive).

For the molecule `CCOc1ccc(NC(=S)Nc2ccc3nsnc3c2)cc1`, the inhibition was 3.93% (inactive).

For the molecule `O=C(O)c1cc(-c2ccc(Cl)c(Cl)c2)n(-c2ccccc2)n1`, the inhibition was -2.01% (inactive).

As to `O=c1[nH]c(Nc2ccccc2)cc2ccccc12`, the inhibition was 4.67% (inactive).

As to `Oc1ccccc1/C=N/Nc1cc(N2CCCC2)nc(N2CCCC2)n1`, the inhibition is 7.43% (inactive).

For the molecule `Cc1nnc(NC(=O)C2C3C=CC(O3)C2C(=O)O)s1` (stereo not given), the inhibition was 22.3%.

Turning to `CCOC(=O)c1sc(N2C(=O)C(O)=C(C(=O)c3ccco3)C2c2cccc([N+](=O)[O-])c2)nc1C` (stereo not given), the inhibition was -2.08% (inactive).

As for `COc1ccc(NC(=O)C2C3CCC(O3)C2C(=O)O)c(OC)c1` (stereo not given), the inhibition was 51.1%.

As to `O=S(=O)(Cc1cc(NCc2ccccc2)nc(-c2ccccn2)n1)c1ccccc1`, the inhibition was 4.59% (inactive).

`CC(=O)C(C(C)=O)C1(O)C(=O)c2ccccc2C1=O`: the inhibition was 6.75% (inactive).

For `O=C(NC1(O)C(=O)c2ccccc2C1=O)c1ccc(C(F)(F)F)cc1`, the inhibition was 11.6% (inactive).

In the case of `Cc1ccc(C(=O)NC2(O)C(=O)c3ccccc3C2=O)cc1C`, the inhibition is 6.31% (inactive).

On to `Cc1ccc(-n2nc(C(=O)O)cc2-c2ccc(Cl)cc2)cc1`, for which the inhibition is -5.42% (inactive).

For `COc1ccc(C(=O)c2nccc3cc(OC)c(OC)cc23)cc1OC`, the inhibition was 2.42% (inactive).

`c1ccc(-c2nccc(-c3ccc(-n4cnc5ccccc54)cc3)n2)nc1`: the inhibition is 6.97% (inactive).

As for `CCOC(=O)c1cnc(-n2nc(C)cc2C)nc1NC1CCCCC1`, the inhibition was 3.66% (inactive).

Regarding `COc1cnc(-c2ccccn2)nc1Oc1cccc(C(F)(F)F)c1`, the inhibition was -5.73% (inactive).

Consider `COc1ccc(Cn2c(N)c(C(=O)NCc3ccco3)c3nc4ccccc4nc32)cc1OC`, for which the inhibition was 2.29% (inactive).

Consider `COc1ccc2c(Cl)c(C(=O)N/N=C/c3ccc4c(c3)OCO4)sc2c1`, for which the inhibition is -2.37% (inactive).

Take `CCCN(CC1CC1)c1nc(N)c2c(N)nc(OC)cc2c1C#N`: the inhibition is 2.08% (inactive).

In the case of `CCCCN(CC)c1nc(N)c2c(N)nc(OCC)cc2c1C#N`, the inhibition was 0.32% (inactive).

`COc1ccc(Cl)cc1C(=O)Nc1cccc(-c2ccc3nncn3n2)c1`: the inhibition is -0.16% (inactive).

In the case of `CN1CCN(C(c2ccccn2)c2cc(Cl)c3cccnc3c2O)CC1` (stereo not given), the inhibition is 8.11% (inactive).

With `O=C1Nc2ccccc2N2CCCC12` (stereo not given), the inhibition is -3.11% (inactive).

On to `N#Cc1c(N2CCCC(O)C2)nc(N)c2c(N)nc3c(c12)CC(=O)N3C12CC3CC(CC(C3)C1)C2` (stereo not given), for which the inhibition was 2.54% (inactive).

Consider `Oc1cccc(/C=N/Nc2cc(N3CCCC3)nc(N3CCCC3)n2)c1`, for which the inhibition was 9.26% (inactive).

For the molecule `O=C(O)c1cc(-c2ccc(Cl)c(Cl)c2)n(-c2ccc(F)cc2)n1`, the inhibition was -3.2% (inactive).

As to `O=C(Nc1nc(-c2ccccn2)cs1)C1CC(=O)N(c2ccc3c(c2)OCCO3)C1` (stereo not given), the inhibition is 2.9% (inactive).

As to `O=C1CCCC2=C1C1(O)C(=O)c3ccccc3C1(O)O2` (stereo not given), the inhibition is 9.53% (inactive).

`COc1cnc(-c2ccccn2)nc1Sc1ccccc1`: the inhibition is 3.72% (inactive).

For `COc1ccc(NC(=S)Nc2ccc3nsnc3c2)cc1`, the inhibition was 2.75% (inactive).

In the case of `O=C(NC1(O)C(=O)c2ccccc2C1=O)c1ccccc1`, the inhibition is 4.22% (inactive).

These data come from PubChem BioAssay AID463222 (The Scripps Research Institute Molecular Screening Center, 2010).
